Target: T1, human M5 receptors (hM5) (Homo sapiens, UniProt P08912)
T1 construct: expressed in transfected cells
T1 sequence (P08912 1-532): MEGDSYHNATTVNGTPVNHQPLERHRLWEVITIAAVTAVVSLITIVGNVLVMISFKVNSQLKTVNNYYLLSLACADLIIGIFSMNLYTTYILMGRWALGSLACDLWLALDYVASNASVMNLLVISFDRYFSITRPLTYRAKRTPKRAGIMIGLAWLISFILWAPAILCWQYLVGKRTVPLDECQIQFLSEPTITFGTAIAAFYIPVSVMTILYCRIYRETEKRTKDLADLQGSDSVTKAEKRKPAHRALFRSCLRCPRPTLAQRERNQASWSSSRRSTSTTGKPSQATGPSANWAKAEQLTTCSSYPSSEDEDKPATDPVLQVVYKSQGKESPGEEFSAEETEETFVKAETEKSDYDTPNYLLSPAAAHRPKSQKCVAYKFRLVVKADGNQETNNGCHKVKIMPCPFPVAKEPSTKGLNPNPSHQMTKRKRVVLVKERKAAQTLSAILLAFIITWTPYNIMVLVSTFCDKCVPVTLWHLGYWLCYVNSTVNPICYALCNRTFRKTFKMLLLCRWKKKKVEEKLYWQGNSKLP
Test: Cell-based functional calcium mobilization assay of mAChR M5 activity (inhibition of EC80 acetylcholine response) in CHO cells
Conditions: CHO cells stably expressing hM5; for IC50: calcium flux (Fluo-4), EC80 acetylcholine addition; for EC80 MIN: minimum of EC80 acetylcholine response, normalized to maximum acetylcholine response
Experimental: All functional cell-based assays were performed essentially as previously described (Marlo et al., Mol.Pharm. 2009, 75(3), 577-588; Brady et al., J. Pharm. & Exp. Ther. 2008, 327, 941-953). Initial, single point (10 µM) competitive and non-competitive inhibitor characterization was performed in stable Chinese Hamster Ovary (CHO) cell lines constitutively expressing human M5 receptors. These were plated at 15,000 cells per 20 µL per well in Greiner 384-well black-walled, TC-treated, clear-bottomed plates (Fisher) in Ham’s F12 medium supplemented with 10% FBS and 20 mM HEPES. Cells were incubated overnight at 37° C. under 5% CO2. The following day, medium was exchanged with assay buffer (Hank’s Balanced Salt Solution supplemented with 20 mM HEPES and 2.5 mM Probenecid, pH 7.4) leaving 20 µL of assay buffer in each well. This was followed by the addition of 20 µL of 2.3 µM of Fluo-4 AM (Invitrogen) in assay buffer (final concentration 1.15 µM). The cells were then incubated 50 minutes at 37° C. under 5% CO2. The assay buffer plus dye was then exchanged with fresh assay buffer leaving a volume of 20 µL in each well. Test compounds were diluted into assay buffer to a 2X (20 µM) concentration in 0.2% dimethylsulfoxide (DMSO) in columns 3 - 22 with matching DMSO concentration in columns 1, 2, 23, and […]; compounds were added to the assay for a final concentration of 10 µM and a final DMSO concentration of 0.1%. Acetylcholine (Sigma-Aldrich) was prepared to provide 5X concentrations of EC20, EC80, and ECmax in the triple-addition assay, providing a signal window to view agonism, potentiation, and inhibition of the acetylcholine response as well as a means to normalize to the maximum acetylcholine response.
Either an FDSS (Hamamatsu) or Panoptic (WaveFront Biosciences) kinetic imaging plate reader was used for assay execution and measurement of calcium flux. After establishing baseline fluorescence, test compounds (20 µL) were added to the cells using the reader’s integrated pipettor and allowed to equilibrate for 140 seconds before addition of the EC20 concentration of acetylcholine (10 µL) along with vehicle in selected DMSO-only wells in the outer two columns. The EC80 concentration of acetylcholine (10 µL) was added 125 seconds after the EC20 addition along with ECmax concentration in the wells receiving vehicle in the second addition. The raw fluorescence data from each well was normalized to the corresponding initial fluorescence reading (static ratio). The maximum fluorescence value following each addition was determined and the minimum value within that same timeframe was subtracted for each well then normalized to the average of the ECmax maximum-minimum response, providing a %AChmax value for each addition for each well. The single point values represent mean values determined within the EC80 addition timeframe obtained from at least three independent determinations performed in triplicate or greater (error bars represent +/- SEM) unless otherwise specified.
Further characterization of competitive and non-competitive inhibitor compounds (compound potency and mAChR subtype-selectivity) was performed on the FDSS with calcium mobilization assays performed as previously described (Marlo et al., 2009; Brady et al., 2008) and in a format similar to that described above using the same reagents. CHO cells stably expressing hM1, hM2/Gqi5, hM3, hM4/Gqi5, hM5, rM1, rM2/Gqi5, rM3, rM4/Gqi5, or rMs were plated in the manner described above. A ten-point concentration range of test compound was serial diluted in assay buffer to 2X final concentration and acetylcholine was diluted in assay buffer to 5X of the EC20 and EC80 concentrations, determined empirically and 5X maximal (2 mM final concentration) stock concentrations. FDSS protocols were carried out as described above; the static ratio was calculated and the minimum response subtracted from the maximum response within the timeframe of each addition. […]

IC50	EC80 MIN	SMILES
4960 nM	3%	CC1Cc2cc(S(=O)(=O)N3CC[C@@H](C(=O)Nc4ccc5scnc5c4)C3)ccc2O1 (mixture of isomers) [Compound 88, (3R)-N-(benzo[d]thiazol-5-yl)-1-((2-methyl-2,3-dihydrobenzofuran-5-yl)sulfonyll)pyrrolidine-3-carboxamide]
42 nM	2%	CC1COc2ccc(S(=O)(=O)N3CC[C@@H](C(=O)Nc4ccc5scnc5c4)C3)cc21 (mixture of isomers) [Compound 132, (3R)-N-(benzo[d]thiazol-5-yl)-1-((3-methyl-2,3-dihydrobenzofuran-5-yl)sulfonyl)pyrrolidine-3-carboxainide]
156 nM	3%	CC1COc2ccc(S(=O)(=O)N3C[C@H](C(=O)Nc4ccc5scnc5c4)[C@@H](C)C3)cc21 (mixture of isomers) [Compound 133, (3R,4R)-N-(benzo[d]thiazol-5-yl)-4-methyl-1-((3-methyl-2,3-dihydrobenzofuran-5-yl)sulfonyl)pyrrolidine-3-carboxamide]
74 nM	2%	Cc1cc2c(cc1S(=O)(=O)N1CC[C@@H](C(=O)Nc3ccc4scnc4c3)C1)C(C)CO2 (mixture of isomers) [Compound 146, (3R)-N-(benzo[d]thiazol-5-yl)-1-((3,6-dimethyl-2,3-dihydrobenzofuran-5-yl)sulfonyl)pyrrolidinc-3-carboxamide]
47 nM	2%	O=C(Nc1ccc2scnc2c1)C1CCN(S(=O)(=O)c2ccc3c(c2)CCO3)C1 (racemic) [Compound 15, (rac)-N-(benzo[d]thiazol-5-yl)-1-((2,3-dihydrobcnzofuran-5-yl)sulfonyl)pyrrolidine-3-carboxamide]
248 nM	2%	O=C(Nc1ccc2scnc2c1)C12CC1CN(S(=O)(=O)c1ccc3c(c1)CCO3)C2 (racemic) [Compound 23, (rac)-N-(benzo[d]thiazol-5-yl)-3-((2,3-dihydrobenzofuran-5-yl)sulfonyl)-3-azabicyclo[3.1.0]hexane-1-carboxamide]
> 10000 nM	29%	O=C(Nc1ccc2scnc2c1)C1CCN(S(=O)(=O)c2cccnc2)C1 (racemic) [Compound 38, (rac)-N-(benzo[d]thiazol-5-yl)-1-(pyridin-3-ylsulfonyl)pyrrolidine-3-carboxamide]
> 10000 nM	53%	O=C(Nc1ccc2scnc2c1)C12CC1CN(S(=O)(=O)c1cccnc1)C2 (racemic) [Compound 40, (rac)-N-(benzo[d]thiazol-5-yl)-3-(pyridin-3-ylsulfonyl)-3-azabicyclo[3.1.0]hexane-1-carboxamide]
202 nM	3%	O=C(Nc1ccc2scnc2c1)C12CC1CN(S(=O)(=O)c1cc3c(cc1F)OCC3)C2 (racemic) [Compound 43, (rac)-N-(benzo[d]thiazol-5-yl)-3-((6-fluoro-2,3-dihydrobenzofuran-5-yl)sulfonyl)-3-azabicyclo[3.1.0]hexane-1-carboxamide]
2280 nM	2%	O=C(Nc1ccc2scnc2c1)[C@H]1CCN(S(=O)(=O)c2ccc3c(c2)CCO3)C[C@H]1F (racemic) [Compound 69, cis-(rac)-N-(benzo[d]thiazol-5-yl)-1-((2,3-dihydrobenzofuran-5-yl)sulfonyl)-3-fluoropiperidine-4-carboxamide]
> 10000 nM	63%	O=C(Nc1ccc2scnc2c1)[C@H]1CCN(S(=O)(=O)c2ccc3ncsc3c2)C[C@H]1F (racemic) [Compound 70, cis-(rac)-N-(benzo[d]|thiazol-5-yl-1)-1-(benzo[d]thiazol-6-ylsulfonyl)-3-fluoropiperidine-4-carboxamide]
> 10000 nM	20%	O=C(Nc1ccc2scnc2c1)[C@H]1CCN(S(=O)(=O)c2ccc(Cl)nc2)C[C@H]1F (racemic) [Compound 71, cis-(rac)-N-(benzo[d]thiazol-5-yl)-1-((6-chloropyridin-3-yl)sulfonyl)-3-fluoropiperidine-4-carboxamide]
> 10000 nM	13%	O=C(Nc1ccc2scnc2c1)[C@H]1CCN(S(=O)(=O)c2cccnc2)C[C@H]1F (racemic) [Compound 72, cis-(rac)-N-(benzo[d]thiazol-5-yl)-3-fluoro-1-(pyridin-3-ylsulfonyl)piperidine-4-carboxamide]
> 10000 nM	45%	Cc1nn(C)cc1S(=O)(=O)N1CC[C@H](C(=O)Nc2ccc3scnc3c2)[C@H](F)C1 (racemic) [Compound 73, cis-(rac)-N-(benzo[d]thiazol-5-yl)-1-((1,3-dimethyl-1H-pyrazol-4-yl)sulfonyl)-3-fluoropiperidine-4-carboxamide]
4260 nM	18%	O=C(Nc1ccc2scnc2c1)[C@H]1CCN(S(=O)(=O)c2cccc3nsnc23)C[C@H]1F (racemic) [Compound 75, cis-(rac)-1-(benzo[c][1,2,5]thiadiazol-4-ylsulfonyl)-N-(benzo[d]thiazol-5-yl)-3-fluoropiperidine-4-carboxamide]
209 nM	2%	O=C(Nc1ccc2scnc2c1)[C@H]1CCN(S(=O)(=O)c2ccc3ncsc3c2)C[C@@H]1F (racemic) [Compound 77, trans-(rac)-N-(benzo[d]thiazol-5-yl)-1-(benzo[d]thiazol-6-ylsulfony1)-3-fluoropiperidine-4-carboxamide]
139 nM	2%	O=C(Nc1ccc2scnc2c1)[C@H]1CCN(S(=O)(=O)c2ccc(Cl)nc2)C[C@@H]1F (racemic) [Compound 79, trans-(rac)-N-(benzo[d]thiazol-5-yl)-1-((6-chloropyridin-3-yl)sulfonyl)-3-fluoropiperidine-4-carboxamide]
312 nM	3%	Cc1nn(C)cc1S(=O)(=O)N1CC[C@H](C(=O)Nc2ccc3scnc3c2)[C@@H](F)C1 (racemic) [Compound 80, trans-(rac)-N-(benzo[d]thiazol-5-yl)-1-((1,3-dimethyl-1H-pyrazol-4-yl)sulfonyl1)-3-fluoropiperidine-4-carboxamide]
500 nM	5%	O=C(Nc1ccc2scnc2c1)[C@H]1CCN(S(=O)(=O)c2cccc3nsnc23)C[C@@H]1F (racemic) [Compound 81, trans-(rac)-1-(benzo[c][1,2,5]thiadiazol-4-ylsulfonyl)-N-(benzo[d]thiazol-5-yl)-3-fluoropiperidine-4-carboxamide]
95 nM	2%	O=C(Nc1ccc2scnc2c1)[C@H]1CCN(S(=O)(=O)c2cccnc2)C[C@@H]1F (racemic) [Compound 82, trans-(rac)-N-(benzo[d]thiazol-5-yl)-3-fluoro-1-(pyridin-3-ylsulfonyl)piperidine-4-carboxamide]
